Consider one compound from paper PMC11233931, “Remodeling tumor‐associated macrophage for anti‐cancer effects by rational design of irreversible inhibition of mitogen‐activated protein kinase‐activated protein kinase 2” (MedComm, 2024).

A value given as a limit tells only on which side of the number the result lay.

The target in one assay is T1, MK3 (Homo sapiens, UniProt Q16644).
T1 construct: purchased Eurofins (Celle Lévescault)
Put plainly: Eurofins kinase selectivity profile, MK3. The assay is classed as biochemical. As for the experimental part:
Subsequently, to ascertain whether the high potency of compound 11 was specific for MK2, an additional 380 human recombinant protein kinases were screened.
To assess the impact of various compounds on MK2 kinase activity, we utilized the ADP‐Glo Assay Kit (Promega) following the manufacturer's instructions. Luminescence measurements were taken using a SpectraMax Paradigm reader. The inhibition percentage was calculated using the following formula: ((specific signalDMSO control − specific signal inhibitor)/(specific signalDMSO control)) × 100%. The IC50 values were determined employing dose–response curve fitting via Prism (Graph Pad). Additionally, Eurofins company (Celle Lévescault) conducted the analysis on compound 11’s inhibitory activity against 380 other human recombinant kinases at various concentrations.

The target of the next assay is MK2 (Homo sapiens, UniProt P49137). Put plainly: MK2 kinase inhibition assay (ADP-Glo). The assay is classed as biochemical. Conditions: mean ± SD of two independent tests. As for the experimental part: To assess the impact of various compounds on MK2 kinase activity, we utilized the ADP‐Glo Assay Kit (Promega) following the manufacturer's instructions. Luminescence measurements were taken using a SpectraMax Paradigm reader. The inhibition percentage was calculated using the following formula: ((specific signalDMSO control − specific signal inhibitor)/(specific signalDMSO control)) × 100%. The IC50 values were determined employing dose–response curve fitting via Prism (Graph Pad).
In general terms: In ADP-Glo the light output rises with the ADP produced.

For assay [1], the system named is CD206 expression in RAW264.7 cells. Put plainly: Flow cytometry of CD206 in IL-4/IL-13 stimulated RAW264.7. The assay is classed as cell-based, mouse. Particulars: RAW264.7, IL-4/IL-13, 48 h. The text has this: A previous study has reported that MK2 fostered M2‐like polarization of TAMs, driving a protumor and proangiogenic phenotype which in turn accelerates tumor progression.[21] We thus assessed the influence of compound 11 on macrophage polarization and function. Our experiments used human THP‐1 monocyte induced macrophages, mouse RAW264.7 macrophages, and mouse bone marrow‐derived macrophages (BMDM). These cells were induced into M2‐like macrophages using the classic IL‐4 and IL‐13 stimuli.
In the in vitro analysis, cells were harvested, stained with surface antibodies, and subsequently fixed and permeabilized using IC Buffer following manufacturer's guidelines. Antibodies targeting intracellular molecules were used for further staining as cells were incubated for an additional 30 min at 4°C. These cells were then filtered using a 300‐mesh cell sieve prior to analysis via CytoFLEX (Beckman Coulter Life Sciences).
Figure S3 Inhibition of pro-tumorigenic M2-like polarization in macrophages by compound 11. (A) Illustrates the treatment effects on various macrophage cells using Western blot analysis post IL-4/IL-13 exposure (30 minutes or the specified time period). (B) Examines CD206 expression in RAW264.7 cells via flow cytometry post 48hours treatment of compound 11 and IL-4/IL-13. […] IL-4/IL-13 (20 ng/mL) served as the stimulation control, while untreated cells were the baseline control. […]
A general note: Flow cytometry measures light scatter and fluorescence of single cells or particles in a stream.

Assay [2] deals with IL-6 and TNF-α secretion by RAW264.7 cells. The assay can be described thus: Cytokine production by ELISA in LPS-stimulated RAW264.7. The assay is classed as cell-based, mouse. Conditions: LPS-stimulated RAW264.7, 24 h. As for the experimental part:
FIGURE 4 Targeting cellular MK2 signaling with irreversible inhibition by compound 11. (A and B) RT‐PCR analysis of IL‐1β, TNF‐α, and IL‐6 expression in Lipopolysaccharides (LPS)‐stimulated THP‐1 (A) and RAW264.7 (B) Cells, with pre‐treatment of compound 11 for 3 h followed by LPS (3 h) stimulation. (C) The inhibitory effects of compound 11 on TNF‐α and IL‐6 production in LPS‐stimulated RAW264.7 macrophages for 24 h, measured by ELISA. (D and E) Compound 11, alongside CC‐99677 and PF‐3644022, suppressed MK2 pathway activation, validated through western blot analysis post‐LPS stimulation. Cells were preincubated with the specified compounds for 1 h prior to LPS stimulation (100 ng/mL, 30 min). (F) Distinguishes the mode of action between compound 11 and CC‐99677. The complex structure of a small molecule and MK2 (3R2Y) with the same parent nucleus as compound 11 is shown in cyans, and the complex structure of a small molecule and MK2 (3FYJ) with the same parent nucleus as CC‐99677 is shown in orange. (G–I) The effect of indicated inhibitor on Hsp27 phosphorylation following inhibitor washout. […]
Following collection and centrifugation of the cell culture media, supernatants were harvested and the levels of cytokine secretion were evaluated using specific ELISA kits (absin), following the manufacturer's protocol.
Background: An ELISA detects its analyte on a solid surface through an enzyme-linked reagent.

The test system of the next assay is MC38 tumor. Put plainly: In vivo antitumor evaluation in MC38 tumor model. The arrangement: species or system C57BL/6 mice. As for the experimental part: C57BL/6 mice, aged 6 weeks, were house and cared for in a controlled, specific pathogen‐free environment. MC38 tumor cells (3.5 × 10[5] in 100 µL) were administered to the mice via subcutaneous injection into the right flanks. Upon reaching a tumor volume between 50 and 100 mm^3, mice were randomized and assigned to either the vehicle control group or the specified treatment group (n = 7/group). The details regarding the administration of inhibitors and the measurement of tumors are delineated in the Supporting Information Methods.
The mice then received intraperitoneal injections of either the vehicle control or compound 11 (at dosages of 25 or 50 mg/kg) twice daily for 10 days. Tumor size was gauged every three days with a microcaliper, and the tumor volume (TV) was estimated using the formula: TV = (length × width^2)/2. Additionally, the individual Tumor Growth Inhibition value (TGI) was assessed on the last day of the experiment for mice treated with the drug in comparison to those treated with the vehicle. The formula used was 100 × {1 - [(VTreated Final day -VTreated Day 0)/(VControl Final day -VControl Day 0)].

T1 sequence (Q16644 whole entry): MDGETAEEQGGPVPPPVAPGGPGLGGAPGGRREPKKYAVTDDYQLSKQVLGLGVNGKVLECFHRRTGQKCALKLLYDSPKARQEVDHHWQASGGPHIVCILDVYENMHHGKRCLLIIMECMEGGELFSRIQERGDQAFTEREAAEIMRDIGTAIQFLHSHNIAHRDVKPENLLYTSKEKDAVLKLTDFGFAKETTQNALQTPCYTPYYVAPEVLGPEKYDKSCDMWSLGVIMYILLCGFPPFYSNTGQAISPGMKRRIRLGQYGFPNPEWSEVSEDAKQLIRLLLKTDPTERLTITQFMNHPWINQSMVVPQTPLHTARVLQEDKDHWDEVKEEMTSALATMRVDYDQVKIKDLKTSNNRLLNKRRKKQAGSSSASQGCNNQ
MK2, sequence (P49137 whole entry): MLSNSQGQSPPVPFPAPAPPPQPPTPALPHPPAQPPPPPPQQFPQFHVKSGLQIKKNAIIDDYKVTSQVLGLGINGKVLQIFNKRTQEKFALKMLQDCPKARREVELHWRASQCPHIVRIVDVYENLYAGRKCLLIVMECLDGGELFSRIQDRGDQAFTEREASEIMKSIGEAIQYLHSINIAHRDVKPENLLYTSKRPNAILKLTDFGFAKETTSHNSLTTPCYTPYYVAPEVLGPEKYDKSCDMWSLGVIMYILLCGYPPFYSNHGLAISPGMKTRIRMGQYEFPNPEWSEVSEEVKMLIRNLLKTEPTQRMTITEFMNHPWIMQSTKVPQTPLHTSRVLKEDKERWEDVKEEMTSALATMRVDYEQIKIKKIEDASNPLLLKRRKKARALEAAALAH

The IC50 is the concentration at which inhibition is half-maximal. Read a high IC50 as a need for much substance. A word on the inhibition: it is the change of the read-out against control, counted positive when it falls. As for `C=CC(=O)Nc1cc(-c2cc(-c3cc4c([nH]3)CCNC4=O)ccn2)ccc1OC(F)(F)F` [compound 11], the IC50 is above 100 nM on MK3 and 2.3 nM against MK2. Further, at MK3 (MAPKAP-K3(h), 1 nM, read-out: Inhibition rate), the inhibition at 0.001 µM is -10%. Also, the inhibition at 0.01 µM on MK3 (MAPKAP-K3(h), 10 nM, read-out: Inhibition rate) amounted to 1%. For the same compound, on MK3 (MAPKAP-K3(h), 100 nM, read-out: Inhibition rate), the inhibition at 0.1 µM is 12%. In addition, the “effect on CD206 expression” value in assay [1] is given as “A similar result”. The “effect on secretion level of IL-6 and TNF-α” value in assay [2] is listed as “similarly reduced”. Besides, the “tumor growth inhibition rate (TGI)” value in the assay with MC38 tumor (25 mg/kg bid x10, ip) is listed as 47.5%; in the assay with MC38 tumor (50 mg/kg bid x10, ip) it was 64.0%.
